These are literature values, as cited in patent publication US11168091B2, “Quantification and preparation of pharmaceutical grade cantharidin” (priority 2015, dated 2021).

SMILES strings stand for the structures.

The conditions of this series: properly stored in a cool and dry place away from strong light and heat; crude preparation of Table 6.

Turning to `CC12C(=O)OC(=O)C1(C)C1CCC2O1` (stereo not shown) [crude cantharidin, 1,2-Dimethyl-3,6-epoxyperhydrophthalic anhydride], the shelf life is on record as 3 years.
